In patent EP0422215B1, “ANTIBACTERIAL AND AN[…]” (THE ROCKEFELLER UNIVERSITY, priority 1989, dated 1990):
Where no end group is shown, it is not given here.

What was measured:
Type in all cases: cell-based
[1] = tested on: B. subtilis Bsll; details: overnight incubation at 30°C; for LETHAL CONCENTRATION Bsll + ME: B. subtilis, plates prepared with medium E; for LETHAL CONCENTRATION Bsll: Bsll = B. subtilis, thin agarose plates
Protocol: (§1) The products of the invention were tested for activity against a variety of test organisms selected to represent a number of different types of pathogens some of them known to be particularly virulent by the inhibition zone assay of Hoffmann et al. (1981) Insect Biochem. 11 537-548. Thin agar or agarose plates (8.5 cm diameter) were prepared with 6 ml of rich medium containing 100 µg/ml of streptomycin and 2 x 10^5 viable cells of a test organism resistant to streptomycin. Wells of […] were punched in the plates and 3 µl of serially diluted samples were placed in the wells. The diameters of the zones of inhibition around the wells were measured after overnight incubation at 30° or 37°C. For each peptide the squares of the zone diameters were plotted against the logarithm of the concentration, and from the slopes and intercepts the lethal concentrations were calculated as described by Hultmark (1983) EMBO J. 2, 571-76 or Hultmark et al. (1982) Eur. J. Biochem. 127 207-217.
(§2) Novel peptides CA(1-8)M(1-18), CA(1-9)M(1-17), CB(1-13)M(1-13), CA(1-17)M(1-9), CA(1-18)M(1-8), M(1-13)CA(1-22) and M(1-13)CA(1-13) were prepared as described above (see Examples 1-6). These novel peptides and CA, CB, and M were tested for activity against a variety of organisms selected to represent a number of different types of pathogens, some of them known to be particularly virulent, by the inhibition zone assay of Hoffmann et al. (1981), Insect Biochem. 11 537-48. As in Examples 1-6, thin agarose plates were prepared with the respective organisms. The diameters of the zones of inhibition were measured after overnight incubation at 30°C. The lethal concentrations were determined as described above (see Examples 1-6; Hultmark et al. articles cited thereat).

[2] = tested on: E. coli D21; details: thin agarose plates, overnight incubation at 30°C
Protocol: as §1, §2

[3] = tested on: S. pyogenes; details: thin agarose plates, overnight incubation at 30°C
Protocol: as §1, §2

[4] = tested on: S. aureus Cowan I; details: thin agarose plates, 30°C, * indicates flat concentration dependence
Protocol: as §1, §2

[5] = tested on: P. aeruginosa OT97; details: thin agarose plates, overnight incubation at 30°C
Protocol: as §1, §2

[6] = tested on: Plasmodium falciparum strain F32 (Tanzania); experiment: inhibition of reinvasion of human red cells by blood stream forms of the malaria parasite; details: result in words, read from Figure 1
Protocol: The blood stream forms of the malaria parasite Plasmodium falciparum, primarily late trophozoites and early schizonts, were assayed by recording the inhibition of the reinvasion of human red cells by the method of Wahlin, B., et al, (1984) Proc. Natl. Acad. Sci. USA 81, 7912-16. Quadruplicate microcultures of strain F32 (Tanzania) were incubated for 20 hrs at 37°C in a complete tissue culture medium, with or without different concentrations of the peptides to be assayed. After acridine orange staining, the percentage of newly infected red cells was scored in a fluorescence microscope. For each culture 40,000 red cells were analysed for parasitic infection. Duplicate assays were run for CA(1-13)M(1-13).

[7] = tested on: Sheep Red Cells; experiment: lysis of sheep red blood cells (lysis assay or inhibition zone plate assay with SRC); details: SRC = Sheep Red Cells; ? indicates turbid zone (melittin gives clear zone)
Protocol: These values were obtained by either the lysis assay normally used for melittin or by an adaptation of the antibacterial inhibition zone assay of the above-cited Hultmark et al. articles to plates with sheep red cells (SRC). With respect to the latter, sterile agarose plates contained 6 ml of medium with 1% agarose, 0.9% NaCl and 10% SRC suspended in Alsevers solution. A dilution series of peptide was applied in 3mm wells each loaded with 3 µl of the respective samples. The plates were incubated at 30°C for 24 h, the zones were recorded and LC values calculated as described in the Hultmark et al. articles. Clear zones were recorded after a few hours of incubation and the use of such data gave an LC value of the same order as readings after 24 h. This plate assay is faster and more convenient than the lysis assay normally used for melittin.

Compound	LETHAL CONCENTRATION Bsll + ME [1] [µM]	LETHAL CONCENTRATION Bsll [1] [µM]	LETHAL CONCENTRATION D21 [2] [µM]	LETHAL CONCENTRATION Strep [3] [µM]	LETHAL CONCENTRATION Staph [4] [µM]	LETHAL CONCENTRATION OT97 [5] [µM]	activity against Plasmodium falciparum (inhibition of reinvasion, Figure 1) [6]	LETHAL CONCENTRATION SRC [7] [µM]
H-KWKLFKKIEKVGQNIRDGIIKAGPAVAVVGQATQIAK-NH2 [CA(1-37), reference compound]	200	4	0.2	4	>200	2	only negligible activity	>200
H-KWKVFKKIEKMGRNIRNGIVKAGPAIAVLGEAKAL-NH2 [CB(1-35), reference compound]			0.3	12	>200	1	about as potent as Mag	
CC[C@H](C)[C@H](NC(=O)CN)C(=O)NCC(=O)N[C@@H](C)C(=O)N[C@H](C(=O)N[C@@H](CC(C)C)C(=O)N[C@@H](CCCCN)C(=O)N[C@H](C(=O)N[C@@H](CC(C)C)C(=O)N[C@H](C(=O)N[C@H](C(=O)NCC(=O)N[C@@H](CC(C)C)C(=O)N1CCC[C@H]1C(=O)N[C@@H](C)C(=O)N[C@@H](CC(C)C)C(=O)N[C@H](C(=O)N[C@@H](CO)C(=O)N[C@@H](Cc1c[nH]c2ccccc12)C(=O)N[C@H](C(=O)N[C@@H](CCCCN)C(=O)N[C@@H](CCCNC(=N)N)C(=O)N[C@@H](CCCCN)C(=O)N[C@@H](CCCNC(=N)N)C(=O)N[C@@H](CCC(N)=O)C(=O)N[C@@H](CCC(N)=O)C(N)=O)[C@@H](C)CC)[C@@H](C)CC)[C@@H](C)O)[C@@H](C)O)C(C)C)C(C)C [M(1-26), reference compound]	0.3	0.2	0.8	0.5	0.2	3		4 to 8
KWKLFKKIEKVGQNIRDGGIGAVLKV-NH2 [CA(1-18)M(1-8)]	20	4	1	3	>600	15		>600
CC[C@H](C)[C@H](NC(=O)[C@H](CC(C)C)NC(=O)[C@H](C)NC(=O)[C@@H]1CCCN1C(=O)[C@H](CC(C)C)NC(=O)CNC(=O)[C@@H](NC(=O)[C@@H](NC(=O)[C@H](CC(C)C)NC(=O)[C@@H](NC(=O)[C@H](CCCCN)NC(=O)[C@H](CC(C)C)NC(=O)[C@@H](NC(=O)[C@H](C)NC(=O)CNC(=O)[C@@H](NC(=O)CNC(=O)[C@H](CCC(=O)O)NC(=O)[C@@H](NC(=O)[C@H](CCCCN)NC(=O)[C@H](CCCCN)NC(=O)[C@H](Cc1ccccc1)NC(=O)[C@H](CC(C)C)NC(=O)[C@H](CCCCN)NC(=O)[C@H](Cc1c[nH]c2ccccc12)NC(=O)[C@@H](N)CCCCN)[C@@H](C)CC)[C@@H](C)CC)C(C)C)C(C)C)[C@@H](C)O)[C@@H](C)O)C(N)=O [CA(1-9)M(1-17)]	0.9	0.7	0.3	0.3	6	1		>600
